Target: T1, GHRHR L362A (Homo sapiens, UniProt Q02643, L362A)
T1 construct: GHRHR(23-423)-; HA signal peptide (replaces native signal M1-G22) (N); expressed in transfected cells; host or cells: HEK 293 T
Assay: cAMP accumulation, L362A
Assay type: cell-based
Details: mean ± SEM, n ≥ 3
From the text: Fig. 2 Molecular recognition of GHRH by GHRHR and comparison of that with LA-PTH–PTH1R and GLP-1–GLP-1R. a Detailed interaction between GHRH and the TMD pocket of GHRHR with hydrogen bonds shown as dotted lines. b, c Pairwise comparison of GHRH bound to GHRHR with GLP-1 and LA-PTH in complex with their corresponding receptors, showing the relative positions of peptide ligands. Lime green, GHRHR; blue, GHRH; red, PTH1R and LA-PTH; purple, GLP-1R and GLP-1. d–f The effects of mutation in the ligand-binding pocket on cAMP accumulation. cAMP levels were measured in wild-type (WT) receptor and alanine mutants in ECL1, 2, and 3 (d), TM1, 2, and 3 (e), and TM5, 6, and 7 (f). cAMP signals were normalized to the maximum response of WT and concentration–response curves were analyzed using a three-parameter logistic equation. Data shown are means ± S.E.M. of at least three independent experiments (n = 3–5), conducted in triplicate. Source data are provided as a Source data file.
GHRH-stimulated cAMP accumulation was measured by a LANCE Ultra cAMP kit (PerkinElmer). […] After 1 h RT incubation, TR-FRET signals (excitation: 320 nm, emission: 615 and 665 nm) were measured by an EnVision (PerkinElmer).

T1 sequence (Q02643 23-423 L362A): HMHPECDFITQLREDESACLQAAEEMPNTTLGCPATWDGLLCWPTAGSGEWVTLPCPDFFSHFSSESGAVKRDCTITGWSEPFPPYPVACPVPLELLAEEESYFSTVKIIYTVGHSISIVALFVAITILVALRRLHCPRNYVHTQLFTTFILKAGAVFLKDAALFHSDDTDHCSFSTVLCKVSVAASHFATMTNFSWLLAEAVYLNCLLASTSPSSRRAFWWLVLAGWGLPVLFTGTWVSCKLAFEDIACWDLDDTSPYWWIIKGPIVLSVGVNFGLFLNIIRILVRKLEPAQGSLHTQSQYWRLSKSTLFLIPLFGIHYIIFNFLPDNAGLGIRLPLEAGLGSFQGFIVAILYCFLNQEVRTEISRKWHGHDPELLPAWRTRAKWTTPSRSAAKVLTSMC

Question: What does the source list for `CC[C@H](C)[C@H](NC(=O)[C@H](C)NC(=O)[C@H](CC(=O)O)NC(=O)[C@H](C)NC(=O)[C@@H](N)Cc1ccc(O)cc1)C(=O)N[C@@H](Cc1ccccc1)C(=O)N[C@H](C(=O)N[C@@H](CC(N)=O)C(=O)N[C@@H](CO)C(=O)N[C@@H](Cc1ccc(O)cc1)C(=O)N[C@@H](CCCNC(=N)N)C(=O)N[C@@H](CCCCN)C(=O)N[C@H](C(=O)N[C@@H](CC(C)C)C(=O)NCC(=O)N[C@@H](CCC(N)=O)C(=O)N[C@@H](CC(C)C)C(=O)N[C@@H](CO)C(=O)N[C@@H](C)C(=O)N[C@@H](CCCNC(=N)N)C(=O)N[C@@H](CCCCN)C(=O)N[C@@H](CC(C)C)C(=O)N[C@@H](CC(C)C)C(=O)N[C@@H](CCC(N)=O)C(=O)N[C@@H](CC(=O)O)C(=O)N[C@H](C(=O)N[C@@H](CCSC)C(=O)N[C@@H](CO)C(=O)N[C@@H](CCCNC(=N)N)C(=O)N[C@@H](CCC(N)=O)C(=O)N[C@@H](CCC(N)=O)C(=O)NCC(=O)N[C@@H](CCC(=O)O)C(=O)N[C@@H](CO)C(=O)N[C@@H](CC(N)=O)C(=O)N[C@@H](CCC(N)=O)C(=O)N[C@@H](CCC(=O)O)C(=O)N[C@@H](CCCNC(=N)N)C(=O)NCC(=O)N[C@@H](C)C(=O)N[C@@H](CCCNC(=N)N)C(=O)N[C@@H](C)C(=O)N[C@@H](CCCNC(=N)N)C(=O)N[C@@H](CC(C)C)C(N)=O)[C@@H](C)CC)C(C)C)[C@@H](C)O` [GHRH, Growth hormone-releasing hormone]?
Answer: EC50: 0.112 nM; Emax: 103.97±0.47 % WT
